# What was measured:
# Assay in all cases: biochemical
# Design in all cases: DiscoverX kinase panel, active-site competition binding (KINOMEscan type), percent of control at one concentration
# Conditions in all cases: competition binding, percent of control
# [1] = molecular target: T1, ABL1(M351T)-phosphorylated (Homo sapiens, UniProt P00519, M351T)
# T1 construct: phosphorylated
# CLK3 = CLK3 (Homo sapiens, UniProt P49761)
# CSF1R-autoinhibited = CSF1R-autoinhibited (Homo sapiens, UniProt P07333)
# DDR1 = DDR1 (Homo sapiens, UniProt Q08345)
# EGFR(S752-I759del) = EGFR(S752-I759del) (Homo sapiens, UniProt P00533, DEL752-759)
# EPHB6 = EPHB6 (Homo sapiens, UniProt O15197)
# HIPK3 = HIPK3 (Homo sapiens, UniProt Q9H422)
# KIT(D816V) = KIT(D816V) (Homo sapiens, UniProt P10721, D816V)
# KIT(L576P) = KIT(L576P) (Homo sapiens, UniProt P10721, L576P)
# KIT(V559D,V654A) = KIT(V559D,V654A) (Homo sapiens, UniProt P10721, V559D/V654A)
# MAP3K1 = MAP3K1 (Homo sapiens, UniProt Q13233)
# MET(M1250T) = MET(M1250T) (Homo sapiens, UniProt P08581, M1250T)
# MLK3 = molecular target: T2, MLK3 (Homo sapiens, UniProt Q16584)
# T2 construct: gene MAP3K11
# NEK10 = NEK10 (Homo sapiens, UniProt Q6ZWH5)
# NEK2 = NEK2 (Homo sapiens, UniProt P51955)
# PFPK5(P.falciparum) = molecular target: T3, PFPK5(P.falciparum) (Plasmodium falciparum, UniProt P61075)
# T3 construct: gene MAL13P1.279
# PFTAIRE2 = molecular target: T4, PFTAIRE2 (Homo sapiens, UniProt Q96Q40)
# T4 construct: gene CDK15
# PKN2 = PKN2 (Homo sapiens, UniProt Q16513)
# RET(V804M) = RET(V804M) (Homo sapiens, UniProt P07949, V804M)
# SRMS = SRMS (Homo sapiens, UniProt Q9H3Y6)
# WEE1 = WEE1 (Homo sapiens, UniProt P30291)
# Chain of NEK10 (Q6ZWH5 whole entry): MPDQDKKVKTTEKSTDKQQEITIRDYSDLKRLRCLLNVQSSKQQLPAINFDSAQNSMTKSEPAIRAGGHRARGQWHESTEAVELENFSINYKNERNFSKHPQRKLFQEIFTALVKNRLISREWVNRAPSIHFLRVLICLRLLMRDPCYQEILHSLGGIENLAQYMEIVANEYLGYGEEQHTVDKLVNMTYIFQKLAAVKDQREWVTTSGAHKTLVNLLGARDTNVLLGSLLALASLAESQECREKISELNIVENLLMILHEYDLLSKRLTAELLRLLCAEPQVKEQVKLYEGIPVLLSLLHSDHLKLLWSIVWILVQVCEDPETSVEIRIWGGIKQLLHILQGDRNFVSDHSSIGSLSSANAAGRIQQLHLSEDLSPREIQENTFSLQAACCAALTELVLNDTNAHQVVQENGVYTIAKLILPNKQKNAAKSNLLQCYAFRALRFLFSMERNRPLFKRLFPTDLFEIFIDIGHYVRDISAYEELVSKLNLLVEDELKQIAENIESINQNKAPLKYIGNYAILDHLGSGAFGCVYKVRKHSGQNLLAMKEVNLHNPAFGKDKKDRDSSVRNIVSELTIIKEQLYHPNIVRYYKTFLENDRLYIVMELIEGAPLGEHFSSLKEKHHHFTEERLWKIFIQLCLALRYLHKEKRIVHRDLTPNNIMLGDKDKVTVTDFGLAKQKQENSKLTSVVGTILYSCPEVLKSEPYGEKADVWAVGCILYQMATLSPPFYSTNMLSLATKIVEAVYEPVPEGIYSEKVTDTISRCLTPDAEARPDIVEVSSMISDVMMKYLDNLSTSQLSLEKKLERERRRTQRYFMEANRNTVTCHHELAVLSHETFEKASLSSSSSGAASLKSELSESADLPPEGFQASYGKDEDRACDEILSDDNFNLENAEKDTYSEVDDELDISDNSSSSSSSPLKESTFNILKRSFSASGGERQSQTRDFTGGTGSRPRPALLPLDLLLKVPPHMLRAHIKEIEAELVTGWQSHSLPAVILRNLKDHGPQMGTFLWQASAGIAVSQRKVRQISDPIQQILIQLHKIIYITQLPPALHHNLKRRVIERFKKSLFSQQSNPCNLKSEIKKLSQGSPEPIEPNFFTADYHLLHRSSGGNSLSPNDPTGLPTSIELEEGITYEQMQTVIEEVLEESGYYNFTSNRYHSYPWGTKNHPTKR
# Chain of KIT(L576P) (P10721 whole entry L576P): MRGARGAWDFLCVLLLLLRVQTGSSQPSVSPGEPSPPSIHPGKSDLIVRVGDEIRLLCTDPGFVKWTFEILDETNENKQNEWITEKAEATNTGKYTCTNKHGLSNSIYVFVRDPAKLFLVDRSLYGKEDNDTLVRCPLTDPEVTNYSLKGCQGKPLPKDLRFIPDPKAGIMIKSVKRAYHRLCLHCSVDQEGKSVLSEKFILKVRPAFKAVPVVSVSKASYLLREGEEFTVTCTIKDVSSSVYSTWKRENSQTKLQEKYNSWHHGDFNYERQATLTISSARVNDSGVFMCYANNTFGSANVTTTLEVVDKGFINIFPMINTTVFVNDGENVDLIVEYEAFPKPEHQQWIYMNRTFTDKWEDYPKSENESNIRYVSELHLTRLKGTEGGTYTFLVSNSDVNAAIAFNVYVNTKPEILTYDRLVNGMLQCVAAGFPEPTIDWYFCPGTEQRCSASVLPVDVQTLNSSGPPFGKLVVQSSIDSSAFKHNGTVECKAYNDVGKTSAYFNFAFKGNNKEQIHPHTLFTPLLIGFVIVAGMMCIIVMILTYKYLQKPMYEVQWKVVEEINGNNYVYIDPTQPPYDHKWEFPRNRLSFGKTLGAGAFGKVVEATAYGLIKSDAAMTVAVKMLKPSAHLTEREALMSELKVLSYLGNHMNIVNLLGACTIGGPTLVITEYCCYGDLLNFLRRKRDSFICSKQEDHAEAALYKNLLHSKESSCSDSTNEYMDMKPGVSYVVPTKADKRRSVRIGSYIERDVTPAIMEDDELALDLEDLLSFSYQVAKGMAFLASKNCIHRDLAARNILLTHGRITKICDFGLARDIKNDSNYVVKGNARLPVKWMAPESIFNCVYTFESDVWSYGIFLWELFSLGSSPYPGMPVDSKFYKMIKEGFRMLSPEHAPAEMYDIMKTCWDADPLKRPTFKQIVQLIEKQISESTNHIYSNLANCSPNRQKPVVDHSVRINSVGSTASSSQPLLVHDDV
# Chain of SRMS (Q9H3Y6 whole entry): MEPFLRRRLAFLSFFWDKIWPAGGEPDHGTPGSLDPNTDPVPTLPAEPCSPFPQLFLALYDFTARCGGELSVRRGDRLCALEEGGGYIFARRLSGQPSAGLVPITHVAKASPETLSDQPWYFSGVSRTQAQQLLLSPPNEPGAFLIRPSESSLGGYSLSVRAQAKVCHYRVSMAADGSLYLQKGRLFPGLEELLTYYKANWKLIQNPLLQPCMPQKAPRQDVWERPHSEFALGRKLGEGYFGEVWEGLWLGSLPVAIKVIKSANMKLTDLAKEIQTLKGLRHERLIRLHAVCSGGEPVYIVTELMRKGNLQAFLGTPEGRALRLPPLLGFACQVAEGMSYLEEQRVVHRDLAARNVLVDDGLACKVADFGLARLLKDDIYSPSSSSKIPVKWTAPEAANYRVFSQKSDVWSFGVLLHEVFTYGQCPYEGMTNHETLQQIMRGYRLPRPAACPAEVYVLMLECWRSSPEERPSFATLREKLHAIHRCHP
# Chain of MAP3K1 (Q13233 whole entry): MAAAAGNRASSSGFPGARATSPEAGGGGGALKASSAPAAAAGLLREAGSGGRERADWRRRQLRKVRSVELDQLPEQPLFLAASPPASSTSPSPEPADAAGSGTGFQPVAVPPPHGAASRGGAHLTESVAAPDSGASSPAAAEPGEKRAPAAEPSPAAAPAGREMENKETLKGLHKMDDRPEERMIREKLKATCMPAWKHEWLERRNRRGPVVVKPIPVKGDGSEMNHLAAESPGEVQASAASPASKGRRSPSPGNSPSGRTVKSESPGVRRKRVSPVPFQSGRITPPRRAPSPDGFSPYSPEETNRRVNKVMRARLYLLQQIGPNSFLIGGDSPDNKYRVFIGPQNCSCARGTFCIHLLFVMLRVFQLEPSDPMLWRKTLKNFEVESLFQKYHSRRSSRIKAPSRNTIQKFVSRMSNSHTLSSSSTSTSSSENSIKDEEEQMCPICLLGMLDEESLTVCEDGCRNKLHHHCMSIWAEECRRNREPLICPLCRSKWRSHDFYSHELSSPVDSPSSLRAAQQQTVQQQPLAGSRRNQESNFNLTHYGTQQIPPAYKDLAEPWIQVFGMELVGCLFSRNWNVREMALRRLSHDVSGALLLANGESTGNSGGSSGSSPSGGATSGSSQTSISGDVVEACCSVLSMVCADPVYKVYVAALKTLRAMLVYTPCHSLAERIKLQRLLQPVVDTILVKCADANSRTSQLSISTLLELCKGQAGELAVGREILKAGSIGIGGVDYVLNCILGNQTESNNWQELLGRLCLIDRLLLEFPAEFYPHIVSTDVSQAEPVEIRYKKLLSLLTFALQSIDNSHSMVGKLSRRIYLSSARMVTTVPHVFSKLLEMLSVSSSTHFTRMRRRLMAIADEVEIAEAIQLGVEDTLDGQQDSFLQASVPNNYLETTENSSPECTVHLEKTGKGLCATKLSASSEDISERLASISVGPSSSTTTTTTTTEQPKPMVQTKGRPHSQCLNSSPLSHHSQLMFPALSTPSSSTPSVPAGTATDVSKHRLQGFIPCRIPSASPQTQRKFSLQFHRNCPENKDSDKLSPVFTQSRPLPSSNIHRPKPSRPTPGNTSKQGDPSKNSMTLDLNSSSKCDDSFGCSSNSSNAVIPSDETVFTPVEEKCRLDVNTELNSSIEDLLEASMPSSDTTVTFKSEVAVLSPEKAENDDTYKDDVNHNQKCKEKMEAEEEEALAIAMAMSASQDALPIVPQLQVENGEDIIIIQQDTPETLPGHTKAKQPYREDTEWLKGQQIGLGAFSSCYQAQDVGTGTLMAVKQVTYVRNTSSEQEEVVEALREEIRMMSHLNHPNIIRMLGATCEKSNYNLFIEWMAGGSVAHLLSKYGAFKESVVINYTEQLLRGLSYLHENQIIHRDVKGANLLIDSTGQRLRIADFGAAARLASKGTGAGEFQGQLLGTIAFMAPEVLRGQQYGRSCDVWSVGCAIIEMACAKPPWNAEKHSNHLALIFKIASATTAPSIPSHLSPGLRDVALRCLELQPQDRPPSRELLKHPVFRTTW
# Chain of DDR1 (Q08345 whole entry): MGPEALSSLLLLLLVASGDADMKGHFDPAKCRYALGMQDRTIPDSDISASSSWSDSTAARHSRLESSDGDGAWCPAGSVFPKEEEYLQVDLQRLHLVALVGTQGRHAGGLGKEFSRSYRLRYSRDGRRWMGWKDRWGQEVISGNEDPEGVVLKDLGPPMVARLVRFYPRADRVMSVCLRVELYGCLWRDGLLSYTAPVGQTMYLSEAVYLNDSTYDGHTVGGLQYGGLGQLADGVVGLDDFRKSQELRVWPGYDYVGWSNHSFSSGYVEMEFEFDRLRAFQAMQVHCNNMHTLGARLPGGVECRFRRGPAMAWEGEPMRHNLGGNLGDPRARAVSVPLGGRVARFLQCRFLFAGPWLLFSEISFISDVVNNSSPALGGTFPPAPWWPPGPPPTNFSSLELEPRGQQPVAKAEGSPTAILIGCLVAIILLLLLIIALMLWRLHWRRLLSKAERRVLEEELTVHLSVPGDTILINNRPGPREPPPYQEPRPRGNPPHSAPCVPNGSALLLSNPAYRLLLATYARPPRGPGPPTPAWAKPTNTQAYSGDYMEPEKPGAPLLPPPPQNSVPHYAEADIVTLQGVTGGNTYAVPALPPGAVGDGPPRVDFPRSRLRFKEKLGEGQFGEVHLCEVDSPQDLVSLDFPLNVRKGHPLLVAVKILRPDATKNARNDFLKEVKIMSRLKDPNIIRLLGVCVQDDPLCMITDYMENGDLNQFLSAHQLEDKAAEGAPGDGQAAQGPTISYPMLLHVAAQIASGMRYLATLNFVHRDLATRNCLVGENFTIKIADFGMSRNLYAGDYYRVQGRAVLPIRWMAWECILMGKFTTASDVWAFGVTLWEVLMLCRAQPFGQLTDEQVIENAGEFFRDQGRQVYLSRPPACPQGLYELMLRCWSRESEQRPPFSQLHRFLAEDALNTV
# Chain of KIT(V559D,V654A) (P10721 whole entry V559D/V654A): as the sequence (P10721 whole entry L576P) above, with V559D, P576L, V654A counted along it
smiles,measurement,setting,value
"COc1cc2c(cn1)N(C)C(=O)[C@@H](NC(=O)c1nc3n(n1)[C@H](c1ccccc1)CC3)CC2 [GNE684, (S)-N-((S)-7-methoxy-1-methyl-2-oxo-2,3,4,5-tetrahydro-1H-pyrido[3,4-b]azepin-3-yl)-5-phenyl-6,7-dihydro-5H-pyrrolo[1,2-b][1,2,4]triazole-2-carboxamide]",remaining binding at 10 µM,[1],100%
same,remaining binding at 10 µM,CLK3,97%
same,remaining binding at 10 µM,CSF1R-autoinhibited,94%
same,remaining binding at 10 µM,DDR1,100%
same,remaining binding at 10 µM,EGFR(S752-I759del),97%
same,remaining binding at 10 µM,EPHB6,100%
same,remaining binding at 10 µM,HIPK3,100%
same,remaining binding at 10 µM,KIT(D816V),100%
same,remaining binding at 10 µM,KIT(L576P),100%
same,remaining binding at 10 µM,"KIT(V559D,V654A)",100%
same,remaining binding at 10 µM,MAP3K1,90%
same,remaining binding at 10 µM,MET(M1250T),100%
same,remaining binding at 10 µM,MLK3,100%
same,remaining binding at 10 µM,NEK10,100%
same,remaining binding at 10 µM,NEK2,92%
same,remaining binding at 10 µM,PFPK5(P.falciparum),100%
same,remaining binding at 10 µM,PFTAIRE2,100%
same,remaining binding at 10 µM,PKN2,84%
same,remaining binding at 10 µM,RET(V804M),100%
same,remaining binding at 10 µM,SRMS,100%
same,remaining binding at 10 µM,WEE1,69%

# Reference: publication PMC7206119, “RIP1 inhibition blocks inflammatory diseases but not tumor growth or metastases” (Cell Death and Differentiation, 2019)
